# Measured values: patent US20140199292A1, “COMPOSITIONS AND METHODS FOR INHIBITING TUMOR DEVELOPMENT CAUSED BY CHEMOTHERAPY INDUCED SENESCENCE” (INSERM (Institut National de la Sante et de la Recherche …, priority 2011, published 2014)
# Legend:
# CCL2 = CCL2 ELISA in supernatant of MCF7 cells; type: cell-based, human; set-up: CCL2 secretion of MCF7 cells: dose or concentration left out as unconfirmed; conditions: for effect on CCL2 secretion of H2O2-treated senescent MCF7 cells: sulfasalazine 500 μM, 3-AB 20 mM
# Description: CCL2 level in the supernatant of the different melanoma cell lines, in that of MCF7 cells or in that of 501mel cells transfected with siC or siMi for 96 hrs, in presence or absence of drugs, was quantified by ELISA (R&D systems). Results from two independent experiments were normalized to cell number and expressed as ng/ml/10^6 cells.
# NF-kB = NF-kB luciferase reporter assay in 501mel cells; type: cell-based, human
# Experimental: 501mel melanoma cells were transiently transfected as previously described using the lipofectamine reagent (Invitrogen) (Bertolotto et al. 1998). Briefly, cells were transiently transfected with 0.3 μg of NF-kB reporter construct and 0.05 μg pCMVbGal to control the variability in transfection efficiency. The transfection medium was changed 6 hours later and when indicated, cells were transfected as described above with 50 nM of siC or siMi and/or siIKK2 or were exposed to drugs. Cells were assayed for luciferase and b-galactosidase activities 48 hours later. Transfections were repeated at least three times.
# IKK2, p53, PARP-1 = test: Western blot of 501mel cell extracts (IKK2, p53, poly-(ADP rybosyl)ation); type: cell-based, human
# Experimental: Western blots were carried out as previously described (Hilmi et al. 2008). Briefly, cell lysates (30 μg) were separated by SDS-PAGE, transferred on to a PVDF membrane and then exposed to the appropriate antibodies, anti-MITF (Abcam), anti-ERK2 (D-2 Santa Cruz biotechnology), anti-p53 (DO-1, Santa Cruz biotechnology), anti-PARP (Santa Cruz biotechnology), anti-IKK2 and anti-PARP (Cell Signaling Technology Inc.). Horseradish peroxidase-conjugated anti-rabbit or anti-mouse antibodies were from Dakopatts (Glostrup, Denmark). Proteins were visualized with the ECL system (Amersham). The western blots shown are representative of at least 3 independent experiments.
# [1] = tested on: p65/RELA subunit of NF-kB; test: Immunofluorescence of p65/RelA localization in melanoma cells; type: cell-based, human; conditions: for effect on NF-kB nuclear relocation by MITF-silencing: 3-AB 20 mM, sulfasalazine 500 μM
# Experimental: Melanoma cells seeded on glass coverslips in 12-well dishes, were transfected with siC or siMi. When indicated cells were exposed to TNFa (10 ng/ml). Ninety-six hours later, cells were fixed and permeabilized as previously described (Khaled et al. 2003) before being exposed to anti-MITF (Abcam), anti-p65/RelA (Santa Cruz biotechnology), 53BP1 (Bethyl Laboratories) and E-cadherin (BD Transduction Laboratories) antibodies. Cells were washed thrice with PBS, and then incubated for 1 hour with 1:1000 dilution anti-mouse or anti-rabbit Alexa Fluor 488 or Alexa Fluor 594 labeled secondary antibody (Invitrogen, San Diego, Calif., USA) and mounted using Gel/Mount (Biomeda corp., Foster City Calif.). Immunofluorescences were examined and photographed with a Zeiss Axiophot microscope equipped with epifluorescence illumination.
# [2] = tested on: 501mel human melanoma cells; test: Senescence of 501mel melanoma cells (morphology, SA-b-Gal staining at pH6); type: cell-based; conditions: flattened and enlarged morphology, SA-b-Gal reactivity at pH6
# Experimental: (§1) 501mel human melanoma cells and MCF7 human breast cancer cells were grown in DMEM supplemented with 7% FBS at 37° C. in a humidified atmosphere containing 5% CO2. Lipofectamine™ RNAiMAX and opti-MEM medium were purchased from Invitrogen (San Diego, Calif., USA). TNFa and recombinant human CCL2 were from PeproTech Inc (Rocky Hill, N.J.), sulfasalazine and 3-AB from Sigma Chem. Co (St Louis, Mo.), mouse anti-CCL2 from R&D Systems and KU55933 from Calbiochem. The senescence b-galactosidase staining kit from Cell Signaling Technology (Beverly, Mass., USA) was used to histochemically detect b-galactosidase activity at pH6 as previously reported (Giuliano et al. 2010a). The percentage of means and standard deviations were derived from counting 100 cells in duplicate plates after 96 hrs.
# MCF7 cells = test: Invasion assay, Boyden chamber, naive MCF7 cells; type: cell-based, human
# Experimental: (a) Conditioned media of control or senescent MCF7 (H2O2 treated) were added to the lower compartment of Boyden chambers to assess their chemotactic activity. Cells that had migrated to the underside of the upper compartment were stained 24 hrs later with crystal violet and the number of nuclei was counted using NIH-imageJ analysis software. Values represent mean+SD of three independent experiments. (b) ELISA test of CCL2 level in the conditioned media of control MCF7 or MCF7 incubated with H2O2 ([…]) and when indicated with sulfasalazine (500 μM) or 3-AB (20 mM). Data are represented as mean+SD.
# (§2) Cell invasion was assessed using a modified Boyden chamber assay with […] pore filter inserts for 24-well plates (BD Bioscience). 501mel cells were seeded on the upper chamber of matrigel-coated trans-well and chemoattractants (conditioned media or recombinant molecules) placed into the lower chamber. Twenty-four hours later, cells adherent to the underside of the filters were fixed with 4% PFA, stained with 0.4% crystal violet and five random fields at ×20 magnification were counted. Results represent the average of triplicate samples from three independent experiments.
# MITF = conditions: Mhaidat et al. 2007; Liu et al. 2009; cited from earlier work
# [3] = tested on: MCF7 human breast cancer cells; test: Senescence, DNA damage and NF-kB activation of MCF7 cells; type: cell-based
# Experimental: as §1
# We next wondered if a similar PARP-1 and NF-kB-assiocated secretome (PNAS) could be observed in non-melanoma cells that have entered a program of senescence. […] Although CCL2 was not expected to be the major component of MCF7's secretome, CCL2 measurement was used as a readout of its formation. […] Together, our result reveal that PNAS during cellular senescence is a common mechanism that relies on activation of the DNA damages/NF-kB signaling cascade in both melanoma and non-melanoma cell lines.
# 501mel cells = test: Invasion assay, matrigel-coated modified Boyden chamber, naive 501mel cells; type: cell-based, human; conditions: recombinant CCL2 100 ng/ml as chemoattractant
# Experimental: as §2
# [4] = 3-AB 20 mM, sulfasalazine 500 μM
compound,measurement,setting,value
"NC(=O)c1cccc(N)c1 [3-AB, 3-aminobenzamide]",effect on CCL2 secretion of H2O2-treated senescent MCF7 cells,CCL2,impaired
same,effect on NF-kB transcriptional activity stimulated by oxidative stress and chemotherapeutic drugs,"NF-kB; 3-AB 20 mM, FMT 40 mM, TMZ 900 nM, H2O2 100 mM",prevented
same,effect on stimulation of NF-kB transcriptional activity by MITF-silencing,NF-kB; [4],no longer able
same,effect on p53 up-regulation mediated by MITF silencing,"IKK2, p53, PARP-1; western blot",almost completely abrogated
same,effect on NF-kB nuclear relocation by MITF-silencing,[1],no longer able to relocate NF-kB to the nucleus
OO [H2O2],senescence of melanoma cells,[2],underwent premature senescence
same,invasion of naive MCF7 cells toward supernatant of treated (senescent) MCF7,MCF7 cells,enhanced the invasion of naïve MCF7 cells
same,CCL2 secretion of MCF7 cells,CCL2; H2O2,resulted in CCL2 secretion
same,MITF expression,MITF,decreased the expression of MITF
same,poly-(ADP rybosyl)ation in melanoma cells,"IKK2, p53, PARP-1",increased poly-(ADP rybosyl)ation
same,DNA damage in MCF7 cells (gH2AX labeling),[3],DNA damage induction
same,NF-kB activity in MCF7 cells (nuclear localization of p65/RELA),[3],stimulation of NF-kB activity
same,senescence of MCF7 cells,"[3]; morphological changes, SA-b-galactosidase, p53 and p21",underwent senescence
CCOP(=O)(OCC)C(C)NC(=O)N(CCCl)N=O (centres unmarked) [fotemustine],senescence of melanoma cells,[2],extended these findings
O=C(O)c1cc(/N=N/c2ccc(S(=O)(=O)Nc3ccccn3)cc2)ccc1O [sulfasalazine],effect on CCL2 secretion of H2O2-treated senescent MCF7 cells,CCL2,impaired
same,effect on stimulation of NF-kB transcriptional activity by MITF-silencing,NF-kB; [4],no longer able
same,effect on activation of the NF-kB reporter gene by siMITF or TNFa,"NF-kB; sulfasalazine 500 μM, siIKK2 co-knockdown",prevented activation of the NF-kB reporter gene
same,effect on IKK2 up-regulation mediated by MITF silencing,"IKK2, p53, PARP-1; western blot",abrogated
same,effect on p53 up-regulation mediated by MITF silencing,"IKK2, p53, PARP-1; western blot",modestly affected
same,effect on NF-kB nuclear relocation by MITF-silencing,[1],no longer able to relocate NF-kB to the nucleus
"CCL2: recombinant human CCL2 from PeproTech, chemokine",invasive capability of naive 501mel cells,501mel cells,stimulated the invasive capability
TNFa,NF-kB transcriptional activity (luciferase reporter),"NF-kB; 501mel cells, TNFα 10 ng/ml, FMT 40 mM, TMZ 900 nM, H2O2 100 mM",up-regulated
same,cellular localization of p65/RELA,[1]; TNFa 10 ng/ml,p65 relocalized to the nucleus
